From patent US10357481B2 (MERCK SHARP & DOHME CORP., priority 2015, dated 2019) come the findings set out here.

Broadly, the Ki is a measure of affinity in units of concentration, obtained from inhibition or displacement.

This test deals with T1, human PDE2A1 (Homo sapiens, UniProt O00408).
T1 construct: GST; purchased BPS Bioscience (San Diego, Calif.) 60020; host or cells: insect cells
T1 sequence (O00408 1-920 isoform O00408-2): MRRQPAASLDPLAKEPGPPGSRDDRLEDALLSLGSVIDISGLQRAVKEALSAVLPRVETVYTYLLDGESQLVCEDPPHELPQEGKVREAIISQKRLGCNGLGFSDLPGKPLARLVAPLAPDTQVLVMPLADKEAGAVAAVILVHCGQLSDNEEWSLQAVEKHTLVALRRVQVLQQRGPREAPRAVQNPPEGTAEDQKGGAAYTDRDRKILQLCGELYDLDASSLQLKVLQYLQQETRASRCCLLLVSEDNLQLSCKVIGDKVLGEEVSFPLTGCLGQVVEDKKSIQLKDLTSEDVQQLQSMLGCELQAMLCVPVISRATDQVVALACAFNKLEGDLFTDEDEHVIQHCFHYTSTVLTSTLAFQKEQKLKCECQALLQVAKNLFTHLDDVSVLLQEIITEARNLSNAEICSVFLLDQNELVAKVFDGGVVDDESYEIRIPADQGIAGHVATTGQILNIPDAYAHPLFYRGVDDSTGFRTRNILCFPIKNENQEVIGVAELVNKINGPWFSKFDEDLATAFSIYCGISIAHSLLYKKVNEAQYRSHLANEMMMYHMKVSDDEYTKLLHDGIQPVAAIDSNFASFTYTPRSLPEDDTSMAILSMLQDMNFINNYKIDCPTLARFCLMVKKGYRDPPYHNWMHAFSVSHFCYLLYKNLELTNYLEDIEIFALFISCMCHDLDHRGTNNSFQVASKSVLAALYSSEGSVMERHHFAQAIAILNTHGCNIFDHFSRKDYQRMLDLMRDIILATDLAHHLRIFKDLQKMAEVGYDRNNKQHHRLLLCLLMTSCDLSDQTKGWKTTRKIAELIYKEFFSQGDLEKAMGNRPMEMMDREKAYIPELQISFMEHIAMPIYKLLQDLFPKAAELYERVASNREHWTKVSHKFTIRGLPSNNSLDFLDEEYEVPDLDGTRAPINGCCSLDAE
Nature of the test: IMAP FP PDE selectivity panel, human PDE2A1. Format: biochemical. As to conditions: Lab B; read-out: Human PDE2 Ki (nM) Lab B. In outline:
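IMAP FP read-out, run at room temperature in parallel with PDE1–11: enzyme at 20% substrate conversion, 50 nM FAM-cAMP containing 1000 nM cGMP, Tris pH 7.2/MgCl2/DTT buffer. Compounds as ten 3-fold dilutions. Reaction 60 min, stopped with binding reagent for 1 h before polarization measurement.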
Take `CC[C@@H](Nc1cc(C)nc2ncnn12)c1ccc(SC(F)(F)F)c(F)c1` [Example 18, N-[(1R)-1-{3-Fluoro-4-[(trifluoromethyl)sulfanyl]phenyl}propyl]-5-methyl[1,2,4]triazolo[1,5-a]pyrimidin-7-amine]: the Ki was found to be 15 nM.

Turning to `Cc1cc(NC(c2ccc3ccccc3c2)C(C)(C)O)n2ncnc2n1` (single isomer, unassigned) [Example 122, (1S or R)-2-Methyl-1-[(5-methyl [1,2,4]triazolo [1,5-a]pyrimidin-7-yl)amino]-1-naphthalen-2-yl propan-2-ol], the Ki is above 2960 nM.

Turning to `CC(C)(O)C(Nc1cc(C(F)(F)F)nc2ncnn12)c1ccc(OC(F)(F)F)c(F)c1` (single isomer, unassigned) [Example 175, (1S or R)-1-[3-Fluoro-4-(trifluoromethoxy)phenyl]-2-methyl-1-{[5-(trifluoromethyl) [1,2,4]triazolo [1,5-a]pyrimidin-7-yl]amino} propan-2-ol], the Ki came to 14 nM.

As for `Fc1cc(C2(Nc3cc(C4CC4)nc4ncnn34)CC2)ccc1C(F)(F)F` [Example 70, 5-Cyclopropyl-N-{1-[3-fluoro-4-(trifluoromethyl)phenyl]cyclopropyl}[1,2,4]triazolo[1,5-a]pyrimidin-7-amine], the Ki was 3.7 nM.

On to `CC(C)c1cc(NC(c2ccc(OC(F)(F)F)c(F)c2)C(C)(C)O)n2ncnc2n1` (single isomer, unassigned) [Example 139, (1R or S)-1-[3-Fluoro-4-(trifluoro-methoxy)phenyl]-2-methyl-1-{[5-(1-methylethyl) [1,2,4]triazolo [1,5-a]pyrimidin-7-yl]amino} propan-2-ol], for which the Ki is above 2960 nM.

Turning to `Cc1cc(NC(c2ccc(C(C)(C)C)cc2)C(C)(C)O)n2ncnc2n1` (single isomer, unassigned) [Example 106], the Ki was above 1240 nM.

For the compound `Cc1cc(NC(c2ccc(C(F)F)cc2)C(C)(C)O)n2ncnc2n1` (single isomer, unassigned) [Example 109, (1R or S)-1-[4-(Difluoromethyl)phenyl]-2-methyl-1-[(5-methyl [1,2,4]triazolo [1,5-a]pyrimidin-7-yl)amino] propan-2-ol], the Ki worked out at 905 nM.

For `CC(C)(O)C(Nc1cc(C(F)F)nc2ncnn12)c1ccc(OC(F)F)cc1F` (single isomer, unassigned) [Example 181], the Ki was determined as 32 nM.

`Cc1cc(NC(c2ccc(OC(F)(F)F)cc2F)C(C)(C)O)n2nc(C)nc2n1` (single isomer, unassigned) [Example 134, (1S or R)-1-[(2,5-Dimethyl[1,2,4]triazolo[1,5-a]pyrimidin-7-yl)amino]-1-[2-fluoro-4-(tri-fluoromethoxy)phenyl]-2-methylpropan-2-ol]: the Ki was above 2960 nM.

Take `CC(C)(O)[C@@H](Nc1cc(C(F)F)cc2ncnn12)c1ccc(OC(F)(F)F)c(F)c1` [Example 279, (S)-1-((7-(Difluoromethyl)-[1,2,4]triazolo[1,5-a]pyridin-5-yl)amino)-1-(3-fluoro-4-(trifluoromethoxy)phenyl)-2-methylpropan-2-ol]: the Ki worked out at 41 nM.

As for `Cc1cc(OC2(c3ccc(C(F)(F)F)cc3)CC2)n2ncnc2n1` [Example 262, 5-Methyl-7-({1-[4-(trifluoromethyl)phenyl]cyclopropyl}oxy)[1,2,4]triazolo[1,5-a]pyrimidine], the Ki is 137 nM.

For the compound `Cc1cc(N[C@@H](c2ccc(SC(F)(F)F)cc2)C(C)(C)C)n2ncnc2n1` [Example 29, N-[(1R)-2,2-Dimethyl-1-{4-[(trifluoromethyl)sulfanyl]phenyl}propyl]-5-methyl[1,2,4]triazolo[1,5-a] pyrimidin-7-amine], the Ki was 2.1 nM.

Take `Cc1cc(NC(C)(C)c2ccc(OC(F)(F)F)c(F)c2)n2ncnc2n1` [Example 45, N-{1-[3-Fluoro-4-(trifluoromethoxy)phenyl]-1-methylethyl}-5-methyl[1,2,4]triazolo[1,5-a]pyrimidin-7-amine]: the Ki was 207 nM.

For the compound `CCCc1nc2nc(C)cc(NC3(c4ccc(C(F)(F)F)c(F)c4)CC3)n2n1` [Example 194, N-(1-(3-Fluoro-4-(trifluoromethyl)phenyl)cyclopropyl)-5-methyl-2-propyl-[1,2,4]triazolo [1,5-a]pyrimidin-7-amine], the Ki amounted to 113 nM.

On to `CC(C)(O)C(Nc1cc(C(F)(F)F)nc2ncnn12)c1ccc(OC(F)F)cc1` (single isomer, unassigned) [Example 166, (1R or S)-1-[4-(Difluoromethoxy)phenyl]-2-methyl-1-{[5-(trifluoromethyl) [1,2,4]triazolo [1,5-a]pyrimidin-7-yl]amino} propan-2-ol], for which the Ki was around 2190 nM.

Consider `Cc1cc(NC(c2ccc(OC(F)(F)F)cc2C)C(C)(C)O)n2ncnc2n1` (single isomer, unassigned) [Example 128, (1S or R)-2-Methyl-1-[(5-methyl[1,2,4]triazolo[1,5-a]pyrimidin-7-yl)amino]-1-[2-methyl-4-(trifluoromethoxy)phenyl]propan-2-ol], for which the Ki is above 2960 nM.

With `Cc1cc(N[C@H](C)c2ccc(C(F)(F)F)c(Cl)c2)n2ncnc2n1` [Example 5, N-{(1R)-1-[3-Chloro-4-(trifluoromethyl)phenyl]ethyl}-5-methyl[1,2,4]triazolo[1,5-a] pyrimidin-7-amine], the inhibition constant (Ki) worked out at 113 nM.

Turning to `Cc1cc(NC2(c3ccc(C(F)(F)F)c(F)c3)CC2)n2nc(C3CC3)nc2n1` [Example 195, 2-Cyclopropyl-N-(1-(3-fluoro-4-(trifluoromethyl)phenyl)cyclopropyl)-5-methyl-[1,2,4]triazolo [1,5-a]pyrimidin-7-amine], the Ki amounted to 144 nM.

Regarding `Cc1cc(N[C@H](C)c2ccc(CC(F)(F)F)cc2)n2ncnc2n1` [Example 4, 5-Methyl-N-{(1R)-1-[4-(2,2,2-trifluoroethyl)phenyl]ethyl}[1,2,4] triazolo[1,5-a]pyrimidin-7-amine], the Ki was 108 nM.

For the compound `Cc1cc(NC(c2ccc(OC(F)F)cc2)C(C)(C)O)n2ncnc2n1` (single isomer, unassigned) [Example 111, (1R or S)-1-[4-(Difluoro-methoxy)phenyl]-2-methyl-1-[(5-methyl[1,2,4]triazolo[1,5-a]pyrimidin-7-yl)amino]propan-2-ol], the Ki was 26 nM.

As to `Fc1cc(C2(Nc3cc(Cl)nc4ncnn34)CC2)ccc1C(F)(F)F` [Example 208, 5-Chloro-N-(1-(3-fluoro-4-(trifluoromethyl)phenyl)cyclopropyl)-[1,2,4]triazolo [1,5-a]pyrimidin-7-amine], the inhibitory constant (Ki) was 2.7 nM.

Take `CC(C)(O)[C@@H](Nc1cc(C(F)(F)F)cc2nc(N)nn12)c1ccc(C(F)(F)F)cc1` [Example 294, (S)-1-((2-Amino-7-(trifluoromethyl)-[1,2,4]triazolo[1,5-a]pyridin-5-yl)amino)-2-methyl-1-(4-(trifluoromethyl)phenyl)propan-2-ol]: the Ki was found to be 678 nM.

Regarding `Cc1cc(N[C@@H](c2ccc(C(F)(F)F)c(F)c2)C(C)(C)C)n2nc(CCO)nc2n1` [Example 250, (R)-2-(7-(1-(3-Fluoro-4-(trifluoromethyl)phenyl)-2,2-dimethylpropylamino)-5-methyl-[1.2.4]triazolo[1,5-a]pyrimidin-2-yl)ethanol], the Ki was 57 nM.

Turning to `Cc1cc(NC(c2ccc3ccccc3c2)C(C)(C)O)n2ncnc2n1` (single isomer, unassigned) [Example 123, (1R or S)-2-Methyl-1-[(5-methyl [1,2,4]triazolo [1,5-a]pyrimidin-7-yl)amino]-1-naphthalen-2-yl propan-2-ol], the Ki stood at 35 nM.

In the case of `Cc1cc(N[C@@H](c2ccc(C3CC3)cc2)C(C)(C)C)n2ncnc2n1` [Example 30, N-[(1R)-1-(4-Cyclopropyl-phenyl)-2,2-dimethylpropyl]-5-methyl[1,2,4]triazolo[1,5-a] pyrimidin-7-amine], the Ki worked out at 4.4 nM.

For the compound `Cc1cc(N[C@@H](c2ccc(C(F)(F)F)c(F)c2)C(C)(C)C)n2nc(C(F)F)nc2n1` [Example 207, (R)-2-(Difluoromethyl)-N-(1-(3-fluoro-4-(trifluoromethyl)phenyl)-2,2-dimethylpropyl)-5-methyl-[1,2,4]triazolo [1,5-a]pyrimidin-7-amine], the Ki came to 74 nM.

In the case of `CCC(O)(CC)C(Nc1cc(C(F)(F)F)nc2ncnn12)c1ccc(C(F)(F)F)c(F)c1` (single isomer, unassigned) [Example 219, (R)- or (S)-3-((3-Fluoro-4-(trifluoromethyl)phenyl)(5-(trifluoromethyl)-[1,2,4]triazolo [1,5-a]pyrimidin-7-ylamino)methyl) pentan-3-ol], the Ki amounted to 252 nM.

`Cc1cc(N[C@@H](c2ccc(C(F)(F)F)cc2)C(C)(C)C)n2ncnc2n1` [Example 26, N-{(1R)-2,2-Dimethyl-1-[4-(trifluoromethyl)phenyl]propyl}-5-methyl[1,2,4]triazolo[1,5-a] pyrimidin-7-amine]: the Ki amounted to 11 nM.

Consider `CC(C)(O)[C@@H](Nc1cc(C(F)(F)F)cc2ncnn12)c1ccc(OC(F)(F)F)cc1F` [Example 278, (1S)-1-[2-Fluoro-4-(trifluoromethoxy)phenyl]-2-methyl-1-{[7-(trifluoromethyl) [1,2,4]triazolo[1,5α]pyridin-5-yl]amino}propan-2-ol], for which the Ki was found to be 92 nM.

As for `Cc1cc(N[C@@H](c2ccc(S(F)(F)(F)(F)F)cc2)C(C)(C)C)n2ncnc2n1` [Example 36, N-{(1R)-2,2-Dimethyl-1-[4-(pentafluoro-λ^6-sulfanyl)phenyl]propyl}-5-methyl [1,2,4]triazolo[1,5-a]pyrimidin-7-amine], the Ki was determined as 6.3 nM.

For the compound `Cc1cc(N[C@@H](c2ccc(OC(F)F)cc2)C(C)C)n2ncnc2n1` [Example 23, N-{(1R)-1-[4-(Difluoromethoxy)phenyl]-2-methylpropyl}-5-methyl [1,2,4]triazolo[1,5-a]pyrimidin-7-amine], the Ki amounted to 45 nM.
